Laboratory results taken from patent US20110224232A1 (Board of Regents, The University of Texas System, priority 2008, published 2011).
Entries after “also recorded” stand apart in the source; their conditions may differ.

Legend:
A. fumigatus = test: Lung histopathology, pulmonary lesion counts in A. fumigatus-infected mice; assay type: in vivo, Aspergillus fumigatus
Method: Histopathological changes in lung tissue were evaluated and compared for four mice in each of the inhaled voriconazole, inhaled control, and intraperitoneal AmB groups. The inhaled control was aerosolized CAPTISOL® at a concentration of 100 mg/mL over 20 minutes. On day 8 post inoculation, animals were euthanized using halothane and 10% volume/volume formaldehyde was instilled into the lungs via the trachea. Lungs were then harvested and placed into 10% volume/volume formaldehyde. Tissue was fixed in formaldehyde for an adequate period of time followed by processing and embedding into paraffin wax. Coronal sections of the entire lung were obtained at a thickness of 4-6 μm and mounted on slides. Sections were stained with hematoxylin and eosin and viewed by light microscopy with a Zeiss AxioVision Imager at 10× magnification. Two investigators were blinded and independently evaluated each lung section. The extent of lung damage caused by invasive hyphae was recorded and quantified by counting and normalizing the number of gross lesions.
Normalization of the histopathology results was achieved by using the number of lung pieces (sections) on the slide as a denominator. The total number of lesions on the slide were counted and then divided by the number of pieces of tissue on that slide. This was done because the number of pieces of tissue per slide (again, all from the same cut of lung from the same animal) ranged from 4 to 9. For example, the normalized number of lesions would be 0.4 if 2 lesions were observed on a slide with 5 lung pieces. Similarly, the normalized value would be 0.14 if 1 lesion was observed on a slide with 7 lung pieces.

[1] = Aerodynamic droplet size characterization, AERONEB Pro nebulizer and eight-stage cascade impactor; assay type: physicochemical
Method: The performance of an inhalable formulation of the invention was evaluated using an AERONEB® Pro nebulizer and a cascade impactor. Aerodynamic droplet size distributions were determined using an adapted USP Apparatus 1 nonviable eight-stage cascade impactor (Thermo-Anderson, Smyrna, Ga.) with a spacer.
Aerodynamic droplet size distributions were determined using a USP Apparatus 1 nonviable eight-stage cascade impactor (Thermo-Anderson, Symrna, Ga.) to quantify total emitted dose (TED) from the nebulizer output, mass median aerodynamic diameter (MMAD), geometric standard deviation (GSD), and percentage droplets with an aerodynamic diameter less than 4.7 micrometer (defined as the percentage fine particle fraction or FPF). The aerodynamic droplet size distribution was conducted as adapted from the guidelines described in USP 30 Section 601: Aerosols, Nasal Sprays, Metered-dose Inhalers, and Dry Powder Inhalers.

[2] = normalized lesions, listed as VRC

Question: What does the source list for CC(c1ncncc1F)C(O)(Cn1cncn1)c1ccc(F)cc1F (centres unmarked) [Voriconazole, 2-(2,4-difluorophenyl)-3-(5-fluoropyrimidin-4-yl)-1-(1H-1,2,4-triazol-1-yl)butan-2-ol]?
Answer: lung histopathology findings (in words) (A. fumigatus; A. fumigatus-infected mice, aerosolized voriconazole, intraperitoneal amphotericin B): fewer signs of invasive disease and markedly improved histological findings; also recorded: fewer signs of invasive disease and markedly improved histological results; also recorded: Invasive hyphae and tissue destruction characteristic of invasive pulmonary aspergillosis were not observed; pulmonary lesions normalized for the number of lung tissue pieces per slide, 25th Percentile (A. fumigatus; normalized lesions): 0.19; pulmonary lesions normalized for the number of lung tissue pieces per slide, 75th Percentile (A. fumigatus; normalized lesions): 0.51; pulmonary lesions normalized for the number of lung tissue pieces per slide, Maximum (A. fumigatus; normalized lesions): 0.55; pulmonary lesions normalized for the number of lung tissue pieces per slide, Mean (A. fumigatus; normalized lesions): 0.4; pulmonary lesions normalized for the number of lung tissue pieces per slide, Median (A. fumigatus; normalized lesions): 0.37; pulmonary lesions normalized for the number of lung tissue pieces per slide, Minimum (A. fumigatus; normalized lesions): 0.14; pulmonary lesions normalized for the number of lung tissue pieces per slide, 25th Percentile (A. fumigatus; [2]): 0.2; pulmonary lesions normalized for the number of lung tissue pieces per slide, 75th Percentile (A. fumigatus; [2]): 0.5; pulmonary lesions normalized for the number of lung tissue pieces per slide, Maximum (A. fumigatus; [2]): 0.6; pulmonary lesions normalized for the number of lung tissue pieces per slide, Median (A. fumigatus; [2]): 0.4; pulmonary lesions normalized for the number of lung tissue pieces per slide, Minimum (A. fumigatus; [2]): 0.1; pulmonary lesions in all available histological samples, 25th Percentile (A. fumigatus; number of lesions): 1.3; pulmonary lesions in all available histological samples, 75th Percentile (A. fumigatus; number of lesions): 4.3; pulmonary lesions in all available histological samples, Maximum (A. fumigatus; number of lesions): 5.0; pulmonary lesions in all available histological samples, Mean (A. fumigatus; number of lesions): 2.5; pulmonary lesions in all available histological samples, Median (A. fumigatus; number of lesions): 2.0; pulmonary lesions in all available histological samples, Minimum (A. fumigatus; number of lesions): 1.0; FPF (fine particle fraction) ([1]; Average Results of Test 1 and 2, 6.25 mg/mL): > 70%; estimated TED, based on measured residual volumes ([1]; all dosing during the survival study): 25.44 mg
